Test results taken from patent US10113154B2, “Method for producing steviol glycoside” (SUNTORY HOLDINGS LIMITED, priority 2012, dated 2018).

Key:
UGT85C2 = biological target: T1, UGT85C2 (Stevia rebaudiana, UniProt Q6VAB0, A65S/E71Q/K220T); assay: Assay for enzyme activity of UGT85C2 (glucosylation with UDP-glucose, LC-MS analysis); type: biochemical; details: 0.1 mM substrate, 2 mM UDP-glucose, pH 7.0, 30° C., one hour; FIG. 4 panel 1
T1 construct: The ORF fragment of about 1.4 kb from UGT85C2 was excised using the restriction enzyme sites of NdeI and BglII; made in house; host or cells: Escherichia coli BL21 (DE3)
T1 sequence (Q6VAB0 whole entry A65S/E71Q/K220T, the tested form may be a part): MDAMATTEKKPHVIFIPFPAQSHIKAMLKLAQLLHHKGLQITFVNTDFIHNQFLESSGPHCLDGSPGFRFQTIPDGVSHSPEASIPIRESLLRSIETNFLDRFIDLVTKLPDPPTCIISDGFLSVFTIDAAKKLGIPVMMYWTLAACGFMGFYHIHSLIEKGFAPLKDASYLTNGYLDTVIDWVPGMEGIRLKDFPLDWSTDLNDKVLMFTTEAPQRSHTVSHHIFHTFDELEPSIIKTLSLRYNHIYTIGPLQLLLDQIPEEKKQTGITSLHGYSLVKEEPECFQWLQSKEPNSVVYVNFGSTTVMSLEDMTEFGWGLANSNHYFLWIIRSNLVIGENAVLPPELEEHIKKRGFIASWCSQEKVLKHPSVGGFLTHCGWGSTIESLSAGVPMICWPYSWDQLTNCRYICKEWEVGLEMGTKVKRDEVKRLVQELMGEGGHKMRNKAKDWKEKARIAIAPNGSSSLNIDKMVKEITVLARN
Protocol: Standard conditions for the enzyme reaction were as follows. A reaction solution (2 mM UDP-glucose, 0.1 mM glycosyl acceptor substrate (steviol), 100 mM potassium phosphate buffer (pH 7.0) and 25 μl of purified UGT85C2 enzyme solution) was prepared in distilled water to become 50 μl, and reacted at 30° C. for an hour. The LC-MS analysis was performed for 5 μl of the enzyme reaction solution under the following conditions.
Column: Waters Sunfire C18 3.5 um 2.0 mm I.D.×20 mm
Moving phase: A: MilliQ Water (+0.05% formic acid), B: MeCN
Gradient: linear gradient of B from 15% to 55% (20 mins.)

[1] = test system: UGT85C2 and UGT91D-like 3; assay: Simultaneous reaction of UGT85C2 and UGT91D-like 3 (LC-MS analysis); type: biochemical, stevia; details: FIG. 4 panel 3
[2] = biological target: T2, UGT85C2 and UGT91D-like 3 (Stevia rebaudiana, UniProt Q6VAB0, A65S/E71Q/K220T); assay: as above; type: biochemical; details: concluded from simultaneous reaction, FIG. 4 panel 3
T2 construct: The ORF fragment of about 1.4 kb from UGT85C2 was excised using the restriction enzyme sites of NdeI and BglII; made in house; host or cells: Escherichia coli BL21 (DE3), stated for UGT85C2 only
T2 sequence (Q6VAB0 whole entry A65S/E71Q/K220T, the tested form may be a part): as above

C=C1C[C@@]23CC[C@H]4[C@@](C)(CCC[C@@]4(C)C(=O)O)[C@@H]2CC[C@]1(O)C3 [steviol]
glucosylation of the carboxyl at C19-position by UGT85C2, product additionally formed (UGT85C2): rubusoside (FIG. 4: panel 1: peak D) with the carboxyl at C19-position being glucosylated was additionally formed | glucosylation of the hydroxyl at C-13 position by UGT85C2, product formed (UGT85C2): glucosylated (FIG. 4, panel 1: peak A) to form steviolmonoside | products formed by simultaneous reaction of UGT85C2 and UGT91D-like 3 [1]: steviolbioside (FIG. 4: panel 3: peak C) and stevioside (FIG. 4: panel 3: peak E) were formed

C=C1C[C@@]23CC[C@H]4[C@@](C)(CCC[C@@]4(C)C(=O)O)[C@@H]2CC[C@]1(O[C@@H]1O[C@H](CO)[C@@H](O)[C@H](O)[C@H]1O[C@@H]1O[C@H](CO)[C@@H](O)[C@H](O)[C@H]1O)C3 [steviolbioside]
glucosylation of the carboxyl at C19-position by UGT85C2 protein [2]: glucosylates the carboxyl at C19-position of steviolbioside
